The record followed here is patent US20240262842A1, “SMALL MOLECULE INHIBITORS OF KRAS G12C MUTANT” (Merck Sharp & Dohme LLC, priority 2021, published 2024).

Where two headings read alike, the source gives them in different places.

The term IC50 denotes the concentration needed to halve the response being measured.

One assay relates to MIA PaCa-2 cells. Kind of assay: Growth inhibition activity on KRAS-G12C mutant cell line (CellTiter-Glo 3D). The assay is classed as cell-based, human. Conditions: MIA PaCa-2, 3-day culture with compound. The method, boiled down: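 IC50 (nM) derived from inhibition of luminescence (CellTiter-Glo 3D) relative to compound-free wells. Cells were seeded in U-bottom plates, grown 1 day, then exposed to compound for 3 days at 37 °C with 0.2% final DMSO.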
(In ATP-based viability assays light output follows the ATP content of the culture.)

Assay [1] addresses T1, interaction between GMPPNP-bound recombinant K-Ras4B G12C mutant protein and cRAF RAS-binding domain (cRAF-RBD) (Homo sapiens, UniProt P01116, G12C).
T1 construct: His-tag (N)
Kind of assay: Inhibitory activity on interaction between KRAS G12C and cRAF (Alpha technology). The method, boiled down:
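Alpha signal measured 1.5 h after adding cRAF-RBD (aa 50-132) and detection reagents to GMPPNP-bound KRAS G12C (aa 1-169) pretreated 1 h at 25° C with compound (pH 7.5 buffer). 0% inhibition = DMSO, 100% = GDP-loaded KRAS; IC50 by curve fit.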

The mark [2] stands for this setting: Homo sapiens, MIA PaCa-2, 72 h, Table 3-1.
Setting [3] is: GMPPNP-bound KRAS G12C incubated with compound 25° C. 1 hour, Table 2-1, read-out: IC50.
Where [4] appears, read: IC50, GMPPNP-bound KRAS G12C incubated with compound 25° C. 1 hour, Table 2-1.
Setting [5] is: IC50, GMPPNP-bound KRAS G12C incubated with compound 25° C. 1 hour, Table 2.

T1 sequence (P01116 with tags, fused parts or gaps isoform P01116-2 G12C): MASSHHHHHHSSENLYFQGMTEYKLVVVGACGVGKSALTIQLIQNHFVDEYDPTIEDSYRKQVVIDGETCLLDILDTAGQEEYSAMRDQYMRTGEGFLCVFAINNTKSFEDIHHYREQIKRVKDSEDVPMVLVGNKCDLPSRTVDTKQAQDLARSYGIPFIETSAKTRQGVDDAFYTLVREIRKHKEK

`COc1cc2c(nc(C)n2C)c2c1-c1cccn3c(C(=O)c4cc(F)c(NC(=O)/C=C/CNC5CCCCC5)c(F)c4)cc(c13)CCN2C` [Example 104, (E)-4-(cyclohexylamino)-N-(2,6-difluoro-4-(7-methoxy-9,10,12-trimeth-yl-9,12,13,14-tetrahydro-imidazo[4″,5″:5′,6′]benzo-[1′,2′:2,3]azocino[4,5,6-hi]indolizine-2-carbon-yl)phenyl)but-2-enamide]: the IC50 amounted to 15.5 nM with MIA PaCa-2 cells (setting [2]) and 41.2 nM in assay [1] (setting [3]).
On to `Cc1cc2c(nc(C)n2C)c2c1-c1cccc3c(C(=O)c4cc(F)c(NC(=O)/C=C/CN5CCC[C@H]5CO)c(F)c4)cn(c13)CCN2C` [Example 114, (S,E)-N-(2,6-difluoro-4-(6,8,9,11-tetramethyl-8,11,12,13-tetrahydro-imidazo[4″,5″:5′,6′]benzo-[1′,2′:5,6][1,4]diazocino-[7,8,1-hi]indole-2-carbon-yl)phenyl)-4-(2-(hydroxy-methyl)pyrrolidin-1-yl)-but-2-enamide], for which the values for the IC50 (in the assay with MIA PaCa-2 cells (setting [2]); in assay [1] (setting [4])) were 64.5 nM and 61.1 nM, respectively.
For `CN1CCc2cc(C(=O)c3cc(F)c(NC(=O)/C=C/CN4CC[C@H]4CO)c(F)c3)n3cccc(c23)-c2c(C(F)(F)F)cc3c(ncn3C)c21` (single isomer, unassigned) [Example 199], the IC50 in the assay with MIA PaCa-2 cells (setting [2]) came out at 3.67 nM; in assay [1] (setting [3]), 10.1 nM.
The like results for `Cn1cnc2c3c(c(C(F)(F)F)cc21)-c1cccn2c(C(=O)c4cc(F)c(NC(=O)/C=C/CN5C6CCC5COC6)c(F)c4)cc(c12)CCO3` [Example 197] were, in that order, 10.9 nM and 11.7 nM.
The like results for `Cc1nc2c3c(c(C(F)(F)F)cc2n1C)-c1cccn2c(C(=O)c4cc(F)c(NC(=O)/C=C/CNC5(C)CCOC5)c(F)c4)cc(c12)CCO3` (single isomer, unassigned) [Example 52] were, in that order, 1.44 nM and 4.55 nM.
As for `CC(O)[C@]1(C)CCCN1C/C=C/C(=O)Nc1c(F)cc(C(=O)c2cc3c4c(cccn24)-c2c(C(F)(F)F)cc4c(ncn4C)c2N(C)CC3)cc1F` (single isomer, unassigned) [Example 205], the figures for the concentration for half-maximal inhibition (IC50) (with MIA PaCa-2 cells (Table 3-1); in assay [1] (setting [3])) were 8.55 nM and 29.5 nM, respectively.
The like results for `CN1CCc2cc(C(=O)c3cc(F)c(NC(=O)/C=C/CN4[C@@H]5CC[C@H]4[C@H](O)C5)c(F)c3)n3cccc(c23)-c2c(C(F)(F)F)cc3c(ncn3C)c21` (single isomer, unassigned) [Example 207] were, in that order, 11.2 nM and 26.9 nM.
Turning to `CO[C@H]1CC[C@H](NC/C=C/C(=O)Nc2c(F)cc(C(=O)c3cc4c5c(cccn35)-c3c(C(F)(F)F)cc5c(nc(C)n5C)c3OC(C)C4)cc2F)CC1` (stereo partly shown) [Example 43, (E)-N-(2,6-difluoro-4-(9,10,13-trimethyl-7-(trifluoromethyl)-13,14-dihydro-9H-imidazo[4″,5″:5′,6′]benzo[1′,2′:2,3]oxocino[4,5,6-hi]indolizine-2-carbonyl)phenyl)-4-(((1r,4r)-4-methoxycyclohexyl)amino)but-2-enamide], the IC50 turned out to be 14 nM in the assay on MIA PaCa-2 cells (Table 3) and 17 nM in assay [1] (GMPPNP-bound KRAS G12C incubated with compound 25° C. 1 hour, Table 2, read-out: IC50).
As for `Cc1cc2c(nc(C)n2C)c2c1-c1cccc3c(C(=O)c4cc(F)c(NC(=O)/C=C/CN5CCC[C@H]5C(C)(C)O)c(F)c4)cn(c13)CCN2C` [Example 122, (S,E)-N-(2,6-difluoro-4-(6,8,9,11-tetramethyl-8,11,12,13-tetrahydro-imidazo[4″,5″:5′,6′]benzo-[1′,2′:5,6][1,4]diazocino-[7,8,1-hi]indole-2-carbon-yl)phenyl)-4-(2-(2-hydroxypropan-2-yl)-pyrrolidin-1-yl)but-2-enamide], the IC50 was 88.2 nM in the assay with MIA PaCa-2 cells (setting [2]) and 54.1 nM in assay [1] (setting [4]).
The like results for `COCc1nc2c3c(c(C(F)(F)F)cc2n1C)-c1cccc2c(C(=O)c4cc(F)c(NC(=O)/C=C/CNC5(C)COC5)c(F)c4)cn(c12)CCN3C` (single isomer, unassigned) [Example 97, (E)-N-(2,6-difluoro-4-(9-(methoxymethyl)-8,11-dimethyl-6-(trifluorometh-yl)-8,11,12,13-tetrahydro-imidazo[4″,5″:5′,6′]benzo-[1′,2′:5,6][1,4]diazocino-[7,8,1-hi]indole-2-carbon-yl)phenyl)-4-((3-methyl-oxetan-3-yl)amino)but-2-enamide] were, in that order, 7.91 nM and 30.4 nM.
Take `CO[C@H]1CC[C@H](NC/C=C/C(=O)Nc2c(F)cc(C(=O)c3cn4c5c(cccc35)-c3c(cc(N5CCCC5=O)cc3C(F)(F)F)OCC4)cc2F)CC1` (single isomer, unassigned) [Example 5-2, (E)-N-(2,6-difluoro-4-(8-(2-oxopyrrolidin-1-yl)-10-(trifluoromethyl)-4,5-dihydrobenzo[7,8][1.4]oxazocino[6,5,4-hi]indole-1-carbonyl)phenyl)-4-(((1r,4t)-4-methoxycyclohexyl)amino)but-2-enamide]: the values for the IC50 (in the assay with MIA PaCa-2 cells (Table 3); in assay [1] (setting [5])) were 1800 nM and greater than 6700 nM, respectively.
As for `Cc1cc2c(ncn2C)c2c1-c1cccn3c(C(=O)c4cc(F)c(NC(=O)/C=C/CNC5(C)CC5)c(F)c4)cc(c13)CCN2C` [Example 115, (E)-N-(2,6-difluoro-4-(7,9,12-trimethyl-9,12,13,14-tetrahydro-imidazo[4″,5″:5′,6′]benzo-[1′,2′:2,3]azocino[4,5,6-hi]indolizine-2-carbon-yl)phenyl)-4-((1-methyl-cyclopropyl)amino)but-2-enamide], the figures for the IC50 (in the assay on MIA PaCa-2 cells (setting [2]); in assay [1] (setting [3])) were 61.3 nM and 38.9 nM, respectively.
On to `COc1cc2c(nc(C)n2C)c2c1-c1cc(F)cn3c(C(=O)c4cc(F)c(NC(=O)/C=C/CNC5(C)CC5)c(F)c4)cc(c13)CCN2C` (single isomer, unassigned) [Example 238], for which the IC50 in the assay with MIA PaCa-2 cells (setting [2]) came to 2.7 nM; in assay [1] (setting [3]), 8.76 nM.
As to `Cc1nc2c3c(c(C(F)(F)F)cc2n1C)-c1cccn2c(C(=O)c4cc(F)c(NC(=O)/C=C/CNC5(C)COC5)c(F)c4)cc(c12)CCN3C` (single isomer, unassigned) [Example 71, (E)-N-(2,6-difluoro-4-(9,10,12-trimethyl-7-(trifluoromethyl)-9,12,13,14-tetrahydroimidazo[4″,5″:5′,6′]benzo[1′,2′:2,3]azocino[4,5,6-hi]indolizine-2-carbonyl)phenyl)-4-((3-methyloxetan-3-yl)amino)but-2-enamide], the IC50 was 9.6 nM with MIA PaCa-2 cells (setting [2]) and 20.2 nM in assay [1] (setting [3]).
Take `COc1cc2c(nc(C)n2C)c2c1-c1cc(F)cn3c(C(=O)c4cc(F)c(NC(=O)/C=C/CN[C@H]5CCOC5)c(F)c4)cc(c13)CCN2C` (single isomer, unassigned) [Example 237]: the results for the IC50 (in the assay on MIA PaCa-2 cells (setting [2]); in assay [1] (setting [3])) were 2.77 nM and 11.4 nM, respectively.
Turning to `CO[C@H]1CC[C@H](NC/C=C/C(=O)Nc2c(F)cc(C(=O)c3cn4c5c(cccc35)-c3c(Cl)cccc3OCCC4)cc2F)CC1` (single isomer, unassigned) [Example 4-2, (E)-N-(4-(11-chloro-5,6-dihydro-4H-benzo[8,9][1,5]oxazonino[7,6,5-hi]indole-1-carbonyl)-2,6-difluorophenyl)-4-(((1,4r)-4-methoxycyclohexyl)amino)but-2-enamide], the figures for the IC50 (with MIA PaCa-2 cells (Table 3); in assay [1] (setting [5])) were 260 nM and 290 nM, respectively.
Consider `COc1cc2c(nc(C)n2C)c2c1-c1cccn3c(C(=O)c4cc(F)c(NC(=O)/C=C/CNC(C)(C)CF)c(F)c4)cc(c13)CCN2C` [Example 93], for which the IC50 with MIA PaCa-2 cells (setting [2]) is 51.6 nM; in assay [1] (setting [3]), 33.6 nM.
